Source: paper PMC10047683, “A Novel Family of Lysosomotropic Tetracyclic Compounds for Treating Leukemia” (Cancers, 2023)

Legend:
GRANTA = assay: Pancancer cell line panel viability; format: cell-based; settings: 10 µM, 48 h
Experimental: (§1) First, 2 × 10^5 (72 h assays in cell lines (Supplementary File S1)), 3 × 10^5 (48 h assays in cell lines) or 7.5 × 10^5 (primary AML, healthy donor buffy coats) cells per mL were cultured in 96-well plates, and all drugs were added at the indicated concentrations. In α-tocopherol experiments, cells were treated with growing concentrations of α-tocopherol and EDK drugs for 48 h. In the NAC and 3MA experiments, treatment was simultaneous with EDK compounds. In glucose deprivation experiments, cells were cultivated with a standard medium (glucose high, 2 g/L), a standard medium without glucose, or a standard medium with galactose (2 g/L) and without glucose. Cell viability was measured via 7-AAD (eBioscience) exclusion and Hoechst33342 (Sigma-Aldrich, St. Louis, MO, USA) positivity staining via flow cytometry, and the cell count was obtained through volume. In the experiments with the primary cells, analyses were performed inside the blast population as detected via blast gates (CD45^low SSC^int). For solid tumor cell lines, viability was analyzed using CellTiter-Glo® Luminescent Cell Viability Assay (Promega).
(§2) AML cell lines and cell cultures
(§3) Cell lines HL-60 (ACC-3), KG-1 (ACC-14), MonoMac-1 (ACC-252), Kasumi-1 […]
(§4) obtained from DSMZ. Cell lines THP-1 (TIB-202TM), MCF-7 (HTB-22™), MDA- […]
(§5) 3216™) and HS-5 (CRL-11882™) were obtained from ATCC. HBL-2 cell line was kindly supplied by Dr. Pérez-Galán (IDIBAPS, Barcelona, Spain). SKM-1 and U937 were kindly provided by Dr. Marcus Buschbeck (IJC, Badalona, Spain). All cell lines were cultured in the conditions indicated by the providers, and were tested for mycoplasma on a monthly basis.
(§6) All drugs were resuspended in H2O (Thermo Fischer Scientific), DMSO (Sigma-Aldrich) or ethanol (VWR) according to manufacturer’s specifications. - tocopherol, 3-methyladenine (3MA), arsenic trioxide (ATO) and N-acetyl-L-cysteine (NAC) were purchased from Sigma Aldrich. Chloroquine diphosphate was purchased from Merck. Etoposide and ionomycin were purchased from […]
(§7) (1 picture or pasted object on this page, not shown here)

MOLT4 = assay: Pancancer cell line panel viability; format: cell-based; settings: 10 µM, 48 h
Experimental: as §1, §2, §3, §4, §5, §6, §7

NCI = assay: Pancancer cell line panel viability; format: cell-based; settings: 10 µM, 48 h
Experimental: as §1, §2, §3, §4, §5, §6, §7

SR = assay: Pancancer cell line panel viability; format: cell-based; settings: 10 µM, 48 h
Experimental: as §1, §2, §3, §4, §5, §6, §7

U266 = assay: Pancancer cell line panel viability; format: cell-based; settings: 10 µM, 48 h
Experimental: as §1, §2, §3, §4, §5, §6, §7

RAMOS = assay: Pancancer cell line panel viability; format: cell-based; settings: 10 µM, 48 h
Experimental: as §1, §2, §3, §4, §5, §6, §7

MCF-7 = assay: Pancancer cell line panel viability; format: cell-based; settings: 10 µM, 48 h
Experimental: as §1, §2, §3, §4, §5, §6, §7

JJN3 = assay: Pancancer cell line panel viability; format: cell-based; settings: 10 µM, 48 h
Experimental: as §1, §2, §3, §4, §5, §6, §7

OVCAR = assay: Pancancer cell line panel viability; format: cell-based; settings: 10 µM, 48 h
Experimental: as §1, §2, §3, §4, §5, §6, §7

HCT-116 = assay: Pancancer cell line panel viability; format: cell-based; settings: 10 µM, 48 h
Experimental: as §1, §2, §3, §4, §5, §6, §7

K562 = assay: Pancancer cell line panel viability; format: cell-based; settings: 10 µM, 48 h
Experimental: as §1, §2, §3, §4, §5, §6, §7

CAKI = assay: Pancancer cell line panel viability; format: cell-based; settings: 10 µM, 48 h
Experimental: as §1, §2, §3, §4, §5, §6, §7

HCT-15 = assay: Pancancer cell line panel viability; format: cell-based; settings: 10 µM, 48 h
Experimental: as §1, §2, §3, §4, §5, §6, §7

M14 = assay: Pancancer cell line panel viability; format: cell-based; settings: 10 µM, 48 h
Experimental: as §1, §2, §3, §4, §5, §6, §7

Jurkat = assay: Pancancer cell line panel viability; format: cell-based; settings: 10 µM, 48 h
Experimental: as §1, §2, §3, §4, §5, §6, §7

MDA-MB-435 = assay: Pancancer cell line panel viability; format: cell-based; settings: 10 µM, 48 h
Experimental: as §1, §2, §3, §4, §5, §6, §7

HBL2 = assay: Pancancer cell line panel viability; format: cell-based; settings: 10 µM, 48 h
Experimental: as §1, §2, §3, §4, §5, §6, §7

A549 = assay: Pancancer cell line panel viability; format: cell-based; settings: 10 µM, 48 h
Experimental: as §1, §2, §3, §4, §5, §6, §7

PC-3 = assay: Pancancer cell line panel viability; format: cell-based; settings: 10 µM, 48 h
Experimental: as §1, §2, §3, §4, §5, §6, §7

MDA-MB-231 = assay: Pancancer cell line panel viability; format: cell-based; settings: 10 µM, 48 h
Experimental: as §1, §2, §3, §4, §5, §6, §7

ACHN = assay: Pancancer cell line panel viability; format: cell-based; settings: 10 µM, 48 h
Experimental: as §1, §2, §3, §4, §5, §6, §7

DU-145 = assay: Pancancer cell line panel viability; format: cell-based; settings: 10 µM, 48 h
Experimental: as §1, §2, §3, §4, §5, §6, §7

HOP62 = assay: Pancancer cell line panel viability; format: cell-based; settings: 10 µM, 48 h
Experimental: as §1, §2, §3, §4, §5, §6, §7

HS-5 = assay: Pancancer cell line panel viability (nontumor line); format: cell-based; settings: HS-5 (nontumor); 10 µM; 48 h
Experimental: as §1, §2, §3, §4, §5, §6, §7

HEK-293T = assay: as above; format: cell-based; settings: HEK-293T (nontumor); 10 µM; 48 h
Experimental: as §1, §2, §3, §4, §5, §6, §7

hERG = molecular target: T1, hERG (Homo sapiens, UniProt Q12809); assay: In vitro hERG inhibition; format: biochemical
T1 construct: Eurofins Discovery Services (CEREP laboratories)
Experimental: All ADMET studies were performed in Eurofins Discovery Services (CEREP laboratories, Celle-Lévescault France). The pharmacokinetic studies were performed in Draconis Pharma SL (Barcelona, Spain) in CD-1 mice treated with 30 mg/kg EDK87 or EDK88 via SC or OG. Blood was collected by cardiac puncture at 0.5, 1, 2, 4, or 24 h.

[1] = test system: panel of 7 AML cell lines; assay: Dose-response viability curves, whole panel; format: cell-based; settings: mean of the 7 AML cell lines; 48 h
Experimental: as §1

MonoMac1 = assay: Combination with ATO in AML cell lines, viability and Bliss synergy; format: cell-based; settings: lower maps (MonoMac1), 48 h
Experimental: as §1
(§8) Synergy was calculated using SynergyFinder 2.0 with the Bliss reference model.

HL60 = assay: as above; format: cell-based; settings: upper maps (HL60), 48 h
Experimental: as §1, §8

T1 sequence (Q12809 whole entry): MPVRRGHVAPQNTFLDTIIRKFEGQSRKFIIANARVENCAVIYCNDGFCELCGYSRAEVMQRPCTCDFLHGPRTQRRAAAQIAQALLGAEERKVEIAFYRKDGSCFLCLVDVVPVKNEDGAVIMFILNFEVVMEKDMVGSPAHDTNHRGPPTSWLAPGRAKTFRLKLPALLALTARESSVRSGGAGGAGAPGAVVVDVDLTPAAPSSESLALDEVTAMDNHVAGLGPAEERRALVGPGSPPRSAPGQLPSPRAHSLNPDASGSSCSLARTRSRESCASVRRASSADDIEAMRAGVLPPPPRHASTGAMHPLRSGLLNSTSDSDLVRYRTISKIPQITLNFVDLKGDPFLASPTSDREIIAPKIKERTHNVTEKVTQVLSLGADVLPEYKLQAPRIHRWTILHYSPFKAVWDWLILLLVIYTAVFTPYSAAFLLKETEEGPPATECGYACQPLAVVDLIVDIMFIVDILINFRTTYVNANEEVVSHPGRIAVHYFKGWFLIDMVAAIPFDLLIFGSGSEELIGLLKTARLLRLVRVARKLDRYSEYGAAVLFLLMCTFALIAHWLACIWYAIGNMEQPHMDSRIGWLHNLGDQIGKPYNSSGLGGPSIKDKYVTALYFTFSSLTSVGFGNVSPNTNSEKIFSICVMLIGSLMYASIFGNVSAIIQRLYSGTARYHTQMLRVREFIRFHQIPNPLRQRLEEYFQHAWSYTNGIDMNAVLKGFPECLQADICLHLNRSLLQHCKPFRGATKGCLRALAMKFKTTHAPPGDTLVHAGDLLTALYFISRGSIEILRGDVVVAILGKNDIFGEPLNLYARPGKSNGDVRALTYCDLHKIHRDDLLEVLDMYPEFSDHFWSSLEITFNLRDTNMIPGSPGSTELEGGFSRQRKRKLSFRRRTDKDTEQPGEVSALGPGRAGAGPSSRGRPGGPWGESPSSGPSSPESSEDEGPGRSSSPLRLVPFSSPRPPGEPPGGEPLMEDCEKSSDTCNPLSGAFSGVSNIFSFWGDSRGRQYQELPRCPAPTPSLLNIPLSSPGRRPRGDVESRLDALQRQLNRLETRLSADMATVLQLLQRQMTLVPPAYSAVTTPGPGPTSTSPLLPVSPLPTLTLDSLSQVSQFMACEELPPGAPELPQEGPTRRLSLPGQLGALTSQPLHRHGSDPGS

CN1CCC(=C2c3ccccc3-c3c2sc2ccccc32)CC1 [EDK-87]
# Live cells refer to control (GRANTA): 35%
# Live cells refer to control (MOLT4): 25%
# Live cells refer to control (NCI): 45%
# Live cells refer to control (SR): 42%
# Live cells refer to control (U266): 70%
# Live cells refer to control (RAMOS): 74%
# Live cells refer to control (MCF-7): 32%
# Live cells refer to control (JJN3): 55%
# Live cells refer to control (OVCAR): 59%
# Live cells refer to control (HCT-116): 64%
# Live cells refer to control (K562): 87%
# Live cells refer to control (CAKI): 58%
# Live cells refer to control (HCT-15): 52%
# Live cells refer to control (M14): 21%
# Live cells refer to control (Jurkat): 51%
# Live cells refer to control (MDA-MB-435): 11%
# Live cells refer to control (HBL2): 58%
# Live cells refer to control (A549): 74%
# Live cells refer to control (PC-3): 65%
# Live cells refer to control (MDA-MB-231): 47%
# Live cells refer to control (ACHN): 70%
# Live cells refer to control (DU-145): 57%
# Live cells refer to control (HOP62): 44%
# Live cells refer to control (HS-5): 71%
# Live cells refer to control (HEK-293T): 79%
hERG inhibition (hERG): concerning results
EC50 [1]: 7.7 ± 0.7 µM
Effectivity (%Viability reduction) (MonoMac1; EDK compound alone 1 µM): 29%
Effectivity (%Viability reduction) (MonoMac1; EDK compound alone 3 µM): 33%
Effectivity (%Viability reduction) (MonoMac1; EDK compound alone 10 µM): 61%
Effectivity (%Viability reduction) (HL60; EDK compound alone 1 µM): 18%
Effectivity (%Viability reduction) (HL60; EDK compound alone 3 µM): 30%
Effectivity (%Viability reduction) (HL60; EDK compound alone 10 µM): 84%
